Experimental data: patent publication US5703232A, “Process and solvate of 2-methyl-thieno-benzodiazepine” (Eli Lilly and Company, priority 1996, dated 1997)

What was measured:
[1] = stability of the anhydrous crystalline forms; assay type: physicochemical; conditions: anhydrous crystalline form, suitability for commercial pharmaceutical formulations
5-HT2B receptor = 5-HT2B receptor activity
mice [2] = experiment: apomorphine-induced climbing behavior in mice; assay type: in vivo
Excerpt: (§1) The Form I olanzapine prepared by the process of this invention has useful central nervous system activity. […] For example, the anhydrous Form I compound has been assessed in a number of standard behavior tests predictive of antipsychotic activity. The claimed compound antagonised apomorphine-induced climbing behavior and hypothermia in mice. See Moore, N. A. et al Psychopharmacology 94 (2), 263-266 (1988).

rats [3] = experiment: conditioned avoidance response in rats; assay type: in vivo
mice [4] = experiment: apomorphine-induced hypothermia in mice; assay type: in vivo
Excerpt: as §1

rats [5] = experiment: induction of catalepsy; assay type: in vivo; conditions: compared with doses required to block conditioned avoidance response
[6] = detection of radiolabelled compound in saliva; assay type: in vivo

| SMILES | stability of the polymorph [1] | 5-HT2B receptor activity (5-HT2B receptor) | antagonism of apomorphine-induced climbing behavior (mice [2]) | inhibition of conditioned avoidance response (rats [3]) | antagonism of apomorphine-induced hypothermia (mice [4]) | induction of catalepsy (rats [5]) | detection in saliva [6] |
| --- | --- | --- | --- | --- | --- | --- | --- |
| Cc1cc2c(s1)Nc1ccccc1N=C2N1CCN(C)CC1 [anhydrous Form II olanzapine, 2-methyl-4-(4-methyl-1-piperazinyl)-10H-thieno[2,3-b][1,5]benzodiazepine] | metastable | – | – | – | – | – | – |
| Cc1cc2c(s1)Nc1ccccc1N=C2N1CCN(C)CC1 [anhydrous Form I olanzapine, 2-methyl-4-(4-methyl-1-piperazinyl)-10H-thieno[2,3-b][1,5]benzodiazepine] | stable | 5-HT2B receptor activity | antagonised | inhibits | antagonised | only at higher doses | – |
| Cc1cc2c(s1)Nc1ccccc1N=C2N1CCN(C)CC1 [2-methyl-4-(4-methyl-1-piperazinyl)-10H-thieno-[2,3-b][1,5]benzodiazepine] | – | – | – | – | – | – | can be detected in the saliva |
